Assay results: ChEMBL document CHEMBL3751713, “Synthesis and Biological Activity of Mono- and Di-N-acylated Aminoglycosides” (ACS Med Chem Lett, 2015)
≈ marks a conversion by molar mass, not a printed value.

How the values were obtained:
[1] = Drug metabolism assessed as Mycobacterium tuberculosis Eis mediated compound modification at 100 uM; format: ADME
[2] = system: Bacillus cereus; experiment: Antimicrobial activity against Gram-positive Bacillus cereus ATCC 17788 after 16 to 24 hrs by micro-dilution method; format: functional
[3] = system: Staphylococcus aureus; experiment: Antimicrobial activity against Gram-positive methicillin-resistant Staphylococcus aureus 2 after 16 to 24 hrs by micro-dilution method; format: functional
[4] = system: Pseudomonas aeruginosa; experiment: Antimicrobial activity against Gram-negative Pseudomonas aeruginosa PAO1 after 16 to 24 hrs by micro-dilution method; format: functional
[5] = system: Staphylococcus aureus; experiment: Antimicrobial activity against Gram-positive Staphylococcus aureus ATCC 29213 after 16 to 24 hrs by micro-dilution method; format: functional
[6] = system: Bacillus anthracis; experiment: Potency index, ratio MIC of kanamycin to MIC of compound for Bacillus anthracis str. Sterne; format: functional
[7] = Drug metabolism assessed as Staphylococcus aureus Bifunctional AAC(6')-1e/APH(2'')-1a mediated compound modification at 100 uM; format: ADME
[8] = system: Bacillus anthracis; experiment: Antimicrobial activity against Gram-positive Bacillus anthracis str. Sterne after 16 to 24 hrs by micro-dilution method; format: functional
[9] = system: Listeria monocytogenes; experiment: Antimicrobial activity against Gram-positive Listeria monocytogenes ATCC 19115 after 16 to 24 hrs by micro-dilution method; format: functional
[10] = system: Bacillus subtilis; experiment: Antimicrobial activity against Gram-positive Bacillus subtilis 168 after 16 to 24 hrs by micro-dilution method; format: functional
[11] = system: Haemophilus influenzae; experiment: Antimicrobial activity against Gram-negative Haemophilus influenzae ATCC 51907 after 16 to 24 hrs by micro-dilution method; format: functional
[12] = system: Staphylococcus aureus; experiment: Antimicrobial activity against Gram-positive methicillin-resistant Staphylococcus aureus 1 after 16 to 24 hrs by micro-dilution method; format: functional
[13] = Drug metabolism assessed as Escherichia coli AAC(3)-IV mediated compound modification at 100 uM; format: ADME
[14] = system: Mycolicibacterium smegmatis; experiment: Antimicrobial activity against Mycobacterium smegmatis MC2-155 after 16 to 24 hrs by micro-dilution method; format: functional; conditions: str. MC2 155
[15] = system: Mycolicibacterium smegmatis; experiment: Potency index, ratio MIC of tobramycin to MIC of compound for Mycobacterium smegmatis MC2-155; format: functional, str. MC2 155
[16] = target: T1, Aminoglycoside 3'-phosphotransferase (Escherichia coli, UniProt P00551); experiment: Drug metabolism assessed as Escherichia coli APH(3')-Ia-mediated compound modification at 100 uM; format: ADME
T1 sequence (P00551 whole entry): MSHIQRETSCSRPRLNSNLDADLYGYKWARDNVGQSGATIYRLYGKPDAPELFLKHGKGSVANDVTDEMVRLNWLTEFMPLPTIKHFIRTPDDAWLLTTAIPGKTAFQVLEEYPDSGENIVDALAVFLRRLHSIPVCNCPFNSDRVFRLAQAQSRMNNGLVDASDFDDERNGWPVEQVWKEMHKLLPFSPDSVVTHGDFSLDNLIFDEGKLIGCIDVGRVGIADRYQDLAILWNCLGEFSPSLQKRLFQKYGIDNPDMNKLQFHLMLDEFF

[17] = system: Bacillus anthracis; experiment: Potency index, ratio MIC of tobramycin to MIC of compound for Bacillus anthracis str. Sterne; format: functional

Structure (SMILES)	Drug metabolism [1]	MIC [2] [µg/mL]	MIC [3] [µg/mL]	MIC [4] [µg/mL]	MIC [5] [µg/mL]	Ratio [6]	Drug metabolism [7]	MIC [8] [µg/mL]	MIC [9] [µg/mL]	MIC [10] [µg/mL]	MIC [11] [µg/mL]	MIC [12] [µg/mL]	Drug metabolism [13]	MIC [14] [µg/mL]	Ratio [15]	Drug metabolism [16]	Ratio [17]
NCC(=O)NC[C@H]1O[C@H](O[C@H]2[C@H](O)[C@@H](O[C@H]3O[C@H](CO)[C@@H](O)[C@H](N)[C@H]3O)[C@H](N)C[C@@H]2N)[C@H](O)[C@@H](O)[C@@H]1O	metabolite_detected	150 (≈ 277 µM)	> 128	> 150	16 (≈ 29.5 µM)	64	metabolite_detected	2 (≈ 3.69 µM)	150 (≈ 277 µM)	> 150	150 (≈ 277 µM)	> 128	metabolite_detected	> 128			
NCC[C@H](O)C(=O)NC[C@H]1O[C@H](O[C@H]2[C@H](O)[C@@H](O[C@H]3O[C@H](CO)[C@@H](O)[C@H](N)[C@H]3O)[C@H](N)C[C@@H]2N)[C@H](N)C[C@@H]1O	metabolite_detected	> 150	> 128	> 150	8 (≈ 14.1 µM)		metabolite_detected	2 (≈ 3.52 µM)	> 150	> 150	> 150	16 (≈ 28.1 µM)	metabolite_detected	8 (≈ 14.1 µM)	>=16	metabolite_notdetected	32
CCN[C@@H]1C[C@H](N)[C@@H](O[C@H]2OC(CNC(=O)CN)=CC[C@H]2N)[C@H](O)[C@H]1O[C@H]1OC[C@](C)(O)[C@H](NC)[C@H]1O	metabolite_detected	75 (≈ 141 µM)	1 (≈ 1.88 µM)	37.5 (≈ 70.4 µM)	0.5 (≈ 0.939 µM)		metabolite_detected	0.5 (≈ 0.939 µM)	18.8 (≈ 35.3 µM)	37.5 (≈ 70.4 µM)	37.5 (≈ 70.4 µM)	32 (≈ 60.1 µM)	metabolite_detected	1 (≈ 1.88 µM)		metabolite_notdetected	
NCC(=O)NC[C@H]1O[C@H](O[C@H]2[C@H](O)[C@@H](O[C@H]3O[C@H](CO)[C@@H](O)[C@H](N)[C@H]3O)[C@H](N)C[C@@H]2N)[C@H](N)C[C@@H]1O	metabolite_detected	18.8 (≈ 35.8 µM)	128 (≈ 244 µM)	18.8 (≈ 35.8 µM)	8 (≈ 15.3 µM)		metabolite_detected	0.5 (≈ 0.953 µM)	18.8 (≈ 35.8 µM)	75 (≈ 143 µM)	75 (≈ 143 µM)	4 (≈ 7.63 µM)	metabolite_detected	4 (≈ 7.63 µM)	>=32	metabolite_notdetected	128
NCC[C@H](O)C(=O)NC[C@H]1O[C@H](O[C@H]2[C@H](O)[C@@H](O[C@H]3O[C@H](CO)[C@@H](O)[C@H](N)[C@H]3O)[C@H](N)C[C@@H]2N)[C@H](O)[C@@H](O)[C@@H]1O	metabolite_detected	> 150	> 128	150 (≈ 256 µM)	32 (≈ 54.6 µM)	32	metabolite_detected	4 (≈ 6.83 µM)	> 150	> 150	> 150	32 (≈ 54.6 µM)	metabolite_detected	2 (≈ 3.42 µM)			
CN[C@@H]1[C@@H](O)[C@@H](O[C@@H]2[C@@H](O)[C@H](O[C@H]3OC(CNC(=O)CN)=CC[C@H]3N)[C@@H](N)C[C@H]2N)OC[C@]1(C)O	metabolite_detected	75 (≈ 149 µM)	2 (≈ 3.96 µM)	18.8 (≈ 37.3 µM)	1 (≈ 1.98 µM)		metabolite_detected	≤ 0.25	18.8 (≈ 37.3 µM)	37.5 (≈ 74.3 µM)	37.5 (≈ 74.3 µM)	8 (≈ 15.9 µM)	metabolite_detected	0.5 (≈ 0.991 µM)		metabolite_notdetected	
NCC[C@@H](O)C(=O)NC[C@H]1O[C@H](O[C@@H]2[C@@H](O)[C@H](O[C@@H]3O[C@@H](CO)[C@H](O)[C@@H](N)[C@@H]3O)[C@@H](NC(=O)[C@@H](O)CCN)C[C@H]2N)[C@H](O)[C@@H](O)[C@@H]1O (stereo in doubt)	metabolite_detected	150 (≈ 218 µM)	> 128	75 (≈ 109 µM)	128 (≈ 186 µM)		metabolite_detected	> 128	150 (≈ 218 µM)	> 150	> 150	> 128	metabolite_detected	8 (≈ 11.6 µM)		metabolite_notdetected	
